Measurements: US20140213453A1, “PLANT GROWTH REGULATION” (SYNGENTA PARTICIPATIONS AG, priority 2011, published 2014)

Columns and labels:
Assay type in all cases: in vivo
barley = assay: Trial in Switzerland, growth regulation (plant height) on barley; details: rates g AI/ha: TXP (Moddus EC250) 75, CJN (EC300) 50, TXP + CJN 75 + 50, untreated check 89
Text: A trial was setup in Switzerland to compare growth regulation effects of trinexapac-ethyl, cis-jasmone, and mixtures of trinexapac-ethyl and cis-jasmone on barley. Assessments of plant height were made 21 days after application.

winter rye (Rekrut) = assay: Glasshouse trial, lodging after leaf spray at growth stage 30, winter rye; details: untreated check 18.9
Text: (§1) A glasshouse trial was setup to compare growth regulation effects of trinexapac-ethyl, cis-jasmone, and mixtures of trinexapac-ethyl and cis-jasmone at various rates, on summer barley (Pasadena) and winter rye (Rekrut). Each treatment was applied as a spray to the leaves of the plant at plant growth stage 30 (start of stem elongation). Assessments of lodging were made 30 days after application; the results are expressed as percentage lodging in Table 2. [table]

[1] = tested on: Poa annua golf course fairway; assay: Turf study, clipping weights on golf course fairway; details: for Clipping weight (grams) per plot, 24-June / Clipping weight (grams) per plot, 10-June / Clipping weight (grams) per plot, 17-June / Clipping weight (grams) per plot, 3-July / Clipping weight (grams) per plot, 4-June: 3 applications on a 4 week schedule; for Clipping weight (grams) per plot, 24-June / Clipping weight (grams) per plot, 10-June / Clipping weight (grams) per plot, 17-June / Clipping weight (grams) per plot, 3-July / Clipping weight (grams) per plot, 4-June / Clipping weight (grams) per plot, Cumulative Clipping total: g ai/ha: TXP 96, CJN 50, TXP + cis-jasmone 72 + 50; for Clipping weight (grams) per plot, 24-June: check 11.95; for Clipping weight (grams) per plot, 10-June: check 12.1; for Clipping weight (grams) per plot, 17-June: check 13.8; for Clipping weight (grams) per plot, 3-July: check 15.7; for Clipping weight (grams) per plot, 4-June: check 21.5; for Clipping weight (grams) per plot, Cumulative Clipping total: total over all rating dates (not all shown), check 194
Method: A study was conducted on Poa annua golf course […], to compare the effects of treatment with cis-jasmone alone, trinexapac-ethyl alone, and combinations of cis-jasmone and trinexapac-ethyl. Clipping weights were measured at regular intervals.

summer barley (Pasadena) = assay: Glasshouse trial, lodging after leaf spray at growth stage 30, summer barley; details: for % lodging 30 DAA: summer barley, untreated check 32.2
Text: as §1

[2] = Treatment 2: TXP (Moddus) 200 g AI/ha
[3] = Treatment 3: TXP (Moddus) 100 g AI/ha

| Compound | Plant height (cm) 21DAA (barley) | % lodging 30 DAA (winter rye (Rekrut); Treatment 4: CJN 300 g AI/ha) | % lodging 30 DAA (winter rye (Rekrut); Treatment 5: CJN 150 g AI/ha) | Clipping weight (grams) per plot, 24-June [1] | Clipping weight (grams) per plot, 10-June [1] | Clipping weight (grams) per plot, 17-June [1] | Clipping weight (grams) per plot, 3-July [1] | Clipping weight (grams) per plot, 4-June [1] | effect on clipping weights, in words ([1]; Poa annua turf, compared to the untreated control) | Clipping weight (grams) per plot, Cumulative Clipping total [1] | % lodging 30 DAA (summer barley (Pasadena); Treatment 4: CJN 300 g AI/ha) | % lodging 30 DAA (summer barley (Pasadena); Treatment 5: CJN 150 g AI/ha) | effect on lodging, in words (summer barley (Pasadena); text summary for summer barley and winter rye, cis-jasmone treatments 4 and 5 compared to treatment 1 (untreated)) | % lodging 30 DAA (winter rye (Rekrut); [2]) | % lodging 30 DAA (winter rye (Rekrut); [3]) | % lodging 30 DAA (summer barley (Pasadena); [2]) | % lodging 30 DAA (summer barley (Pasadena); [3]) |
| --- | --- | --- | --- | --- | --- | --- | --- | --- | --- | --- | --- | --- | --- | --- | --- | --- | --- |
| CC/C=C\CC1=C(C)CCC1=O [CJN, cis-jasmone] | 90 cm | 23.3% | 30.0% | 14.7 a grams | 12.8 a grams | 17.69 a grams | 19.2 a grams | 21.7 a grams | increased clipping weights | 213.5 a grams | 60.0% | 70.0% | significantly increases lodging |  |  |  |  |
| CCOC(=O)C1CC(=O)C(=C(O)C2CC2)C(=O)C1 (stereo not drawn) [TXP, trinexapac-ethyl, reference compound] | 90 cm |  |  | 10.71 grams | 9.27 d grams | 11.35 grams | 18.2 a grams | 18.1 grams |  | 173 def grams |  |  |  | 0.0% | 6.7% | 6.7% | 10.0% |
